Measurements taken from patent publication US9867798B2, “Ladostigil therapy for immunomodulation” (priority 2012, dated 2018).
Values joined by “and” are separate entries in the source; they are usually repeats but may differ in a detail not shown here. Equal entries are not always repeated.

What was measured:
[1] = test system: mice with DSS-induced colitis; experiment: Acute colitis induced by DSS in mice: body weight, stool, bleeding, DAI, colon length; type: in vivo, BALB/c OlaHsd mice
Description: (§1) BALB/c OlaHsd male mice aged 8-9 weeks and weighing 25-30 g were purchased from Harlan (Jerusalem, Israel) and housed in standard cages of up to 5 per cage in the pathogen free Animal Facility of the Institute for Drug Research. All experiments were performed in accordance with the Principles of Laboratory Animal Care (NIH publication #85-23, revised 1985) protocols MD-09-12197-4. Acute colitis was induced in mice by administration of 5% DSS solution (M.Wt.=[…], MP Biomedicals, LLC, Solon, Ohio, USA) in water for 8 days. The DSS solution was freshly prepared every day. Mice were provided with food and water or DSS solution ad libitum during the experiment. They were divided into groups of 10 as follows: Vehicle control group: mice drank water and were given water (1 ml/100 gm) once daily by gavage for 8 days; Drug control group: mice drank water and were given ladostigil (10 mg/kg) by gavage once daily for 8 days. DSS untreated group: mice drank 5% DSS for 7 days and water on the 8th day and were given water (1 ml/100 g) once daily by gavage for 8 days. Drug treated group: mice drank 5% DSS followed by water as above and were given ladostigil (5 or 10 mg/kg) by gavage once daily for 8 days. The volume of 5% DSS solution consumed was measured for each group of mice and the average volume/mouse was calculated. On the eighth day, the mice were anesthetized by CO2 and sacrificed by cervical dislocation 2 h after the last dose of ladostigil. Samples of colon and spleen were taken for measurement of cytokines MPO, cytokines and ChE activity.
Body weight, stool consistency and the presence of blood in the stools was recorded daily for each mouse. […] The score ranged between 0-4 for all three parameters and was composed as follows: Weight loss: none=0, 1-5%=1, 5-10%=2, 10-20%=3, >20%=4. Percent of weight loss on days 7 and 8 relative to the first day was calculated for all the groups. […] Bleeding: none=0, hemoccult=2, gross bleeding=4. The maximum DAI score was 4 based on a combination of scores of weight loss (relative to that on the first day of the experiment), stool consistency and bleeding, divided by 3. After sacrifice the length of the colon segment from the cecum to the rectum was measured.

[2] = test system: LPS-induced TNF-α, IL-1β and IL-6 in spleen; experiment: Cytokines in spleen of mice injected with LPS (Example 4); type: in vivo, Balb/c mice
Description: Male Balb/c mice (aged 6-7 weeks, weighing 25-30 gm) were given ladostigil 10 mg/kg by gavage or 1 ml/kg saline followed 15 min later by an intra-peritoneal (i.p.) injection of LPS (10 mg/kg). For measurement of cytokine levels in the spleen and blood the mice were sacrificed 4 h after drug administration, blood collected in heparinized tubes and centrifuged to obtain plasma and the spleen was rapidly removed and weighed. Plasma and spleen were frozen in liquid nitrogen and stored at −80° C. until use.
For measurement of cytokine levels the tissue was diluted in PBS containing 0.8% NaCl, 0.144% NaHPO4, 0.024% KH2PO4 and protease inhibitor cocktail (Sigma Israel, P8340) and homogenized in an Ultra-TURRAX® homogenizer at a speed of 24,000 rpm, centrifuged at 14000 g for 15 min at 4° C. Cytokines were detected in the supernatant by using ELISA kits for cytokines IL-1β, IL-6, and TNF-α(Biolegend) following the manufacturer's protocol. Each experiment was performed 4 times with 6 replicate measures in each experiment. Protein concentration in each sample was determined with Bradford reagent (Bio-RAD, 500-0006).

AChE = conditions: 51 and 70.1 mg/kg/day, doses effective in ameliorating EAE; cited from earlier work
[3] = test system: cholinesterase (AChE and BuChE); experiment: Cholinesterase activity in spleen and colon of mice drinking DSS (Ellman); type: in vivo; conditions: for ChE activity colon / ChE activity spleen: DSS 5%, 8 days
Description: as §1
In experiments on the effect of chronic treatment with ladostigil on ChE activity in mice drinking DSS, the spleen was rapidly removed as described above, together with a colon segment of about 0.5 cm in length taken from the proximal area. Spleen and colon segments were washed in cold phosphate buffered saline (PBS) before they were frozen at −80° C. For assay, the tissue was unfrozen and weighed and PBS was added to each tissue at a ratio of 1 mg tissue to 1 ml. Tissues were homogenized at a speed of 24,000 rpm in cold phosphate buffer pH 7 containing 0.1% Triton and centrifuged at 14000 rpm. Aliquots of plasma and the supernatant from the spleen and colon were incubated with acetylthiocholine and dinitro benzoic acid in phosphate buffer pH 7 and the rate of development of the yellow color was measured as described by Ellman et al, (1961). Percent inhibition of ChE activity was calculated by comparison with that of control mice given water by gavage. Protein concentration was determined by means of by Pierce BCA Protein Assay Kit (Thermo Scientific, USA) according to the manufacturer's instructions. It is noted, that ChE activity in the colon and spleen of mice is attributed mainly to that of AChE while that in mouse plasma is mainly attributable to BuChE.

[4] = test system: Psammomys obesus gerbils on high-energy diet; experiment: Diabetes in gerbils on high-energy diet: glucose, insulin, pancreatic islets; type: in vivo; parameters: Change in glucose: unit: mg/dL
Description: Male Psammomys obesus gerbils aged 3.5-4 months were given a high-energy diet consisting of 938.5 g/Kg version of 2018SC+F Harlan Tekled Ltd., USA, supplemented with soybean oil to a final fat concentration of 6%. After one week on the diet, blood was taken for measurement of glucose and ChE activity. Half of the animals were given ladostigil (17 mg/kg/day) by gavage while the remainder received tap water by the same route. Blood was taken from the tail once weekly for measurement of glucose as described in Kalman R., et al, (2001). Lab Anim. 35:346-352. After three weeks of treatment the animals they were deeply anesthetized, blood was taken by cardiac puncture for measurement of ChE activity, glucose and insulin levels and the pancreas removed for section and staining with haematoxylin and eosin and the number of islets counted. Blood glucose of 11 animals had reached values exceeding 200 mg/dL after one week on the high energy diet and the average value for the whole group was 300±27 mg/dL. […] It is noted, that cholinesterase activity in plasma of Psammomys obesus is mostly mediated by butyrylcholinesterase (BuChE) rather than by AChE.

[5] = 10 mg/kg by gavage + LPS 10 mg/kg i.p., four hours

## C#CCN[C@@H]1CCc2ccc(OC(=O)N(C)CC)cc21 [Ladostigil, R(+)-6-(N-methyl, N-ethyl-carbamoyloxy)-N′-propargyl-1-aminoindan]
[1]; 5% DSS, 5 and 10 mg/kg, untreated decrease >30%
  Decrease in colon length and signs of hyperemia and inflammation: significantly less
[1]; 5% DSS, both doses (5 and 10 mg/kg), untreated loss 15%
  Reduction of DSS-induced weight loss: ~50%
[1]; 5% DSS, day 7, both doses (5 and 10 mg/kg)
  Diarrhea: significantly decreased
[1]; 5% DSS, day 8, 5 mg/kg
  Bleeding: significantly decreased
[1]; 5% DSS, days 7 and 8, drug treated groups vs DSS-water, p<0.01
  Disease activity index (DAI): significantly different from that of the group drinking DSS given water
[1]; mice receiving 5 or 10 mg/kg by gavage, no DSS
  Body weight increase during 8 days: 2-3%
[2]; 10 mg/kg + LPS, Example 4
  Reduction of IL-1β levels in spleen: 28.1%
  Reduction of IL-6 levels in spleen: 46.7%
  Reduction of TNF-α levels in spleen: 49.6%
[2]; [5]
  IL-1β in spleen: 1.37 ± 0.04 ng/mg protein
  IL-6 in spleen: 179 ± 20 pg/mg protein
  TNF-α in spleen: 8.3 ± 0.9 pg/mg protein
[2]; oral dose prior to LPS, Example 4 conclusion
  Reduction of elevation of pro-inflammatory cytokines in the spleen: 28-50%
AChE
  Inhibition of AChE in blood: 60-65%
  Inhibition of AChE in brain: 47-52%
[3]; 5 or 10 mg/kg
  Inhibition of ChE in the colon: Neither dose of ladostigil caused any significant inhibition
[3]; 5 mg/kg orally once daily
  ChE activity colon: 18.5 ± 1.4 μmoles of acetylthiocholine hydrolyzed/min/mg protein
  ChE activity spleen: 10.8 ± 0.6 μmoles of acetylthiocholine hydrolyzed/min/mg protein
[3]; 10 mg/kg orally once daily
  ChE activity colon: 16.7 ± 1.2 μmoles of acetylthiocholine hydrolyzed/min/mg protein
  ChE activity spleen: 10.2 ± 0.7 μmoles of acetylthiocholine hydrolyzed/min/mg protein
[4]; 17 mg/kg/day, three weeks
  Blood glucose levels: decrease in blood glucose levels in all six animals
[4]; individual gerbils, 17 mg/kg/day
  Insulin after 3 weeks of treatment: 132 mU/L and 126.6 mU/L and 124.6 mU/L and 85.3 mU/L and 172 mU/L and 135.3 mU/L
[4]; individual gerbils, 17 mg/kg/day by gavage, 17 mg/kg/day
  Glucose after 3 weeks of treatment: 284 mg/dL and 250 mg/dL and 180 mg/dL and 311 mg/dL and 222 mg/dL and 266 mg/dL
[4]; individual gerbils, 17 mg/kg/day, after 3 weeks vs before, 17 mg/kg/day
  Change in glucose: −136 and −23 and −20 and −41 and −65 and −19
[4]; individual gerbils, 17 mg/kg/day, after 3 weeks, 17 mg/kg/day
  No of islets: 42 and 117 and 79 (2×) and 99 and 87
[4]; individual gerbils, baseline after one week of high energy diet, group later given 17 mg/kg, 17 mg/kg
  Glucose before treatment: 420 mg/dL and 273 mg/dL and 200 mg/dL and 352 mg/dL and 287 mg/dL and 285 mg/dL
